The values below are quoted from earlier work in US20240148879A1, “GLP-1R, GIP-R AND/OR GCGR AGONISTS, FORMULATIONS, AND METHODS OF USE” (Spitfire Pharma LLC, priority 2021, published 2024).

The conditions of data set [1]: 12 weeks.

Bridge positions count the residues as written; N and C are the ends. Ends that are not written are not given here.

In the case of `CCCCCCCCCCCCCCCC(=O)N[C@@H](CCC(=O)NCCCC[C@H](NC(=O)[C@H](CC(=O)O)NC(=O)[C@H](CO)NC(=O)[C@@H](NC(=O)[C@H](Cc1ccccc1)NC(=O)[C@@H](NC(=O)CNC(=O)[C@H](CCC(N)=O)NC(=O)[C@H](CO)NC(=O)[C@@H](N)Cc1c[nH]cn1)[C@@H](C)O)[C@@H](C)O)C(=O)N[C@@H](CO)C(=O)N[C@@H](CCC(=O)O)C(=O)N[C@@H](Cc1ccc(O)cc1)C(=O)N[C@@H](CC(C)C)C(=O)N[C@@H](CC(=O)O)C(=O)N[C@@H](CO)C(=O)N[C@@H](CCC(=O)O)C(=O)N[C@@H](CCCNC(=N)N)C(=O)N[C@@H](C)C(=O)N[C@@H](CCCNC(=N)N)C(=O)N[C@@H](CC(=O)O)C(=O)N[C@@H](Cc1ccccc1)C(=O)N[C@H](C(=O)N[C@@H](C)C(=O)N[C@@H](Cc1c[nH]c2ccccc12)C(=O)N[C@@H](CC(C)C)C(=O)N[C@@H](CCC(=O)O)C(=O)N[C@@H](C)C(=O)NCC(=O)NCC(=O)O)C(C)C)C(=O)O` [cotadutide], the “reduction in liver fat content” value (6 weeks) is 39%. For the setting “compared with liraglutide alone”, the “NASH-related alanine aminotransferase (ALT) reduction” value was “greater improvement”. Under “over 26 weeks of administration”, the “degree of weight loss” value is 5.4%.

For the compound “JNJ 64565111: a balanced dual agonist (HAQGTFTSDYSKYLDEKRAKEFVQWLMNTX; lactam 16-20; X not resolved here; also: Fc carrier conjugate)”, the “reduction in body weight” value in data set [1] is 8%.
